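Protocol summary: plate cells (96-well), add compound at 5 concentrations, incubate 48 h, interpolate endpoints linearly. GI50 = concentration required for 50% inhibition of growth.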 Activity calls are given as the source filed them. Rule as the data show it: active = GI50 up to about 1.1 µM and inactive = higher.
Key:
Test in all cases: inhibition of tumour cell growth, NCI panel, 48 h
TK-10 = test system: TK-10
CAKI-1 = test system: CAKI-1
SNB-19 = test system: SNB-19
IGROV-1 = test system: IGROV-1
UACC-62 = test system: UACC-62
OVCAR-5 = test system: OVCAR-5
HCT-116 = test system: HCT-116
SF-539 = test system: SF-539
SW-620 = test system: SW-620
EKVX = test system: EKVX
CCRF-CEM = test system: CCRF-CEM
NCI-H460 = test system: NCI-H460
KM12 = test system: KM12
K562 = test system: K562
HCC 2998 = test system: HCC 2998
A549 = test system: A549
LOX IMVI = test system: LOX IMVI
SN12C = test system: SN12C
SK-MEL-2 = test system: SK-MEL-2
SK-MEL-5 = test system: SK-MEL-5

Measured: GI50

O=c1sc2ccccc2n1CC1CS1 (stereo unspecified)
inactive: TK-10 > 100 µM | CAKI-1 > 100 µM | SNB-19 > 100 µM | IGROV-1 > 100 µM | UACC-62 > 100 µM | OVCAR-5 > 100 µM | HCT-116 > 100 µM | SF-539 > 100 µM | SW-620 > 100 µM | EKVX > 100 µM | CCRF-CEM > 100 µM | NCI-H460 > 100 µM | KM12 > 100 µM | K562 > 100 µM | HCC 2998 > 100 µM | A549 > 100 µM | LOX IMVI > 100 µM | SN12C > 100 µM | SK-MEL-2 > 100 µM

C=CCCCC12CCCc3cccc(c31)NC2=O (stereo unspecified)
inactive: TK-10 19.6 µM | SNB-19 23.4 µM | IGROV-1 17.1 µM | UACC-62 16.8 µM | OVCAR-5 19.3 µM | HCT-116 13.6 µM | SF-539 19.6 µM | SW-620 20 µM | EKVX 19.1 µM | CCRF-CEM 16.9 µM | NCI-H460 16.8 µM | KM12 17.4 µM | K562 22 µM | HCC 2998 16.4 µM | A549 20.2 µM | LOX IMVI 21.6 µM | SN12C 32.4 µM | SK-MEL-5 16.3 µM | SK-MEL-2 23.2 µM

COc1ccc(-n2cnnc2-c2nsc3ccccc23)cc1
inactive: TK-10 > 100 µM | SNB-19 > 100 µM | IGROV-1 > 100 µM | UACC-62 > 100 µM | OVCAR-5 > 100 µM | HCT-116 > 100 µM | SF-539 23.4 µM | SW-620 > 100 µM | EKVX > 100 µM | CCRF-CEM > 100 µM | NCI-H460 > 100 µM | KM12 95.1 µM | K562 90.6 µM | HCC 2998 > 100 µM | A549 > 100 µM | LOX IMVI > 100 µM | SN12C 99.8 µM | SK-MEL-5 > 100 µM | SK-MEL-2 > 100 µM

COc1ccc(N2C(=O)C(=O)N(C)C2=O)c2ccccc12
inactive: TK-10 > 10 µM | CAKI-1 > 10 µM | SNB-19 > 10 µM | IGROV-1 > 10 µM | UACC-62 > 10 µM | OVCAR-5 > 10 µM | HCT-116 > 10 µM | SF-539 > 10 µM | SW-620 > 10 µM | EKVX > 10 µM | CCRF-CEM > 10 µM | NCI-H460 > 10 µM | KM12 > 10 µM | K562 > 10 µM | HCC 2998 > 10 µM | A549 > 10 µM | LOX IMVI > 10 µM | SN12C > 10 µM | SK-MEL-5 > 10 µM | SK-MEL-2 > 10 µM

CCN(CC)CCn1c(=O)c2c(C)c3oc4ccccc4oc3c(C)c2c1=O
inactive: TK-10 > 100 µM | CAKI-1 > 100 µM | SNB-19 > 100 µM | IGROV-1 > 100 µM | UACC-62 > 100 µM | OVCAR-5 > 100 µM | HCT-116 > 100 µM | SF-539 > 100 µM | SW-620 > 100 µM | EKVX > 100 µM | CCRF-CEM > 100 µM | NCI-H460 > 100 µM | KM12 > 100 µM | K562 > 100 µM | HCC 2998 > 100 µM | A549 > 100 µM | LOX IMVI > 100 µM | SN12C > 100 µM | SK-MEL-5 > 100 µM | SK-MEL-2 > 100 µM

COC1=CC(=O)c2c(c(O)c3oc4cc(OC)cc(C)c4c(=O)c3c2O)C1=O [BIKAVERIN]
inactive: SNB-19 2.28 µM | UACC-62 1.24 µM | OVCAR-5 1.97 µM | SF-539 1.32 µM | SW-620 1.6 µM | NCI-H460 1.34 µM | KM12 3.25 µM | HCC 2998 9.91 µM | A549 1.6 µM | SN12C 1.56 µM
active: CAKI-1 0.195 µM | IGROV-1 1.08 µM | HCT-116 1.02 µM | EKVX 1.01 µM | CCRF-CEM 0.741 µM | K562 0.719 µM | LOX IMVI 0.535 µM | SK-MEL-5 1 µM | SK-MEL-2 0.865 µM
